Assay results reported in patent US5010067A, “Triglyceride-water emulsion pharmaceutical vehicles” (Sandoz Pharmaceuticals Corp., priority 1988, dated 1991).
Entries after “also recorded” stand apart in the source; their conditions may differ. Counter-ions that a name gives are not always drawn.

What was measured:
rat tail [1] = test: Detergent-like effects at tail vein injection site in rats, repeated daily injection for 14 days (compound in Emulsion A); assay type: in vivo; conditions: for Sloughing of tissue, incidence: mild sloughing in various areas (Compound A) / small dots at injection sites (Compound B); for Ischemia, incidence: by/at 14 days; for Average gain in body weight: over 14 days; for Edema, incidence: tail vein, by/at day 14; for Edema, day of onset: majority of rats; for Edema, day of onset in single late rat: one rat; for Overall damage to the rat tail / negative effects: compared with other compound or other vehicles
Experimental: A commercial 10% intravenous fat emulsion having 5% safflower oil and 5% soybean oil, USP, i.e. "Liposyn II 10%" described above, hereinafter referred to as Emulsion A, is employed.
The test compound is suspended or dissolved in Emulsion A at a concentration of 28 mg/ml. Probe sonification is employed to make a homogenous drug suspension or solution.
Rats are injected with 0.1 ml/100 g body weight. Control animals are injected with Emulsion A alone at the same volume as drug treated rats.
Each rat is placed in a plastic restraining tube, leaving its tail exposed A warm water soaked gauze pad is placed on the tail for approximately 10 seconds to help dilate the tail vein. A 25 gauge needle attached to a 1 cc tuberculine syringe is used to administer drug/control to the rat. To assure proper administration of doses, a negative pressure is achieved by drawing back slowly on the plunger of the syringe. A flashback of blood into the hub of the needle indicates proper placement of the needle, and drug/control is then administered slowly to the rat. After administration of dose, needle is removed and pressure with a clean gauze pad applied for approximately 10 seconds to keep fluid from flowing out of injection site. The rat is returned to its cage and procedure repeated for each animal.
Body weight and visual observations for detergent-like effects are recorded each day and at the end of the 14 day period; particularly for edema, ischemia and necrosis.
Tests were run to observe detergent-like effects on laboratory rats using as active ingredient either 3-[2-[octadecylaminocarbonyloxymethyl-tetrahydrofuran-2-ylmethoxy)-hydroxy-phosphinyloxy]-ethane]-thiazolium hydroxide inner salt-4-oxide (as Compound A) or cis-1-(2-[hydroxy[[tetrahydro-5-[(octadecylaminocarbonyl)oxy]methyl]furan- 2-yl]methoxyphosphinyloxy]ethyl)-quinolinium hydroxide, inner salt-4-oxide (as Compound B). Each of Compounds A and B was administered to a group of 5 rats.
Each of the two compounds were tested at 28 mg/kg suspended in the 10% intravenous fat emulsion. Rats were injected once a day for 14 consecutive days and monitored for the aforementioned signs of tail morbidity.

rat tail [2] = test: Previous tests: injection of standard water-based mixtures in rats' tails; assay type: in vivo; conditions: for Test halted because of detergent-like effects around the injection site: standard water-based mixtures, 25 mg/kg and over; for Reduction of detergent-like effects by adjustment of pH, or inclusion of buffers or serum albumin: water-based mixtures
[3] = 28 mg/kg once daily in Emulsion A, 14 days
[4] = 28 mg/kg once daily in Emulsion A

Structure (SMILES)	Edema, severity (rat tail [1]; [3])	Ischemia, severity (rat tail [1]; [3])	Necrosis, incidence (rat tail [1]; [3])	Necrosis, severity / lesion size (rat tail [1]; [3])	Slightly larger area of sloughing, incidence (rat tail [1]; [3])	Sloughing of tissue, incidence (rat tail [1]; [3])	Ischemia, incidence (rat tail [1]; [4])	Average gain in body weight (rat tail [1]; [4])	Edema, incidence (rat tail [1]; [4])	Edema, day of onset (rat tail [1]; [4])	Edema, day of onset in single late rat (rat tail [1]; [4])	Period for which tests could be run (rat tail [1]; in Emulsion A)	Overall damage to the rat tail / negative effects (rat tail [1]; in Emulsion A, 14 days)	Test halted because of detergent-like effects around the injection site (rat tail [2])	Reduction of detergent-like effects by adjustment of pH, or inclusion of buffers or serum albumin (rat tail [2])	Animals having necrotic tissue (rat tail [1]; in Emulsion A, 14 days)	Animals with sloughing of necrotic tissue (rat tail [1]; in Emulsion A, 14 days)
CCCCCCCCCCCCCCCCCCNC(=O)OC[C@H]1CC[C@@H](COP(=O)([O-])OCC[n+]2cccc3ccccc32)O1 (relative stereo) [Compound B, cis-1-(2-[hydroxy[[tetrahydro-5-[(octadecylaminocarbonyl)oxy]methyl]furan-2-yl]methoxyphosphinyloxy]ethyl)-quinolinium hydroxide, inner salt-4-oxide]	mild edema	small areas of ischemia; also recorded: mild edema and ischemia	5/5	small areas of ischemia and necrosis; also recorded: very small areas; also recorded: necrotic lesions being much smaller	1/5	2/5	5/5	29.6%	5/5	~4 days	10 days	14 days	least amount of damage to the rat tail; also recorded: visibly better	forced to halt after only a few days	had not proven satisfactory		
CCCCCCCCCCCCCCCCCCNC(=O)OCC1(COP(=O)([O-])OCC[n+]2ccsc2)CCCO1 (stereo not drawn) [Compound A]	moderate edema	moderate edema and ischemia	All rats had mottled necrotic areas			3/4	All rats displayed ischemia of entire tail	24%	All rats showed some amount of edema	2 to 4 days	13 days	14 days	greatly reduced the negative effects	forced to halt after only a few days	had not proven satisfactory	100%	75%
